Assay results published in PMC9127750, “Structure-based design of CDC42 effector interaction inhibitors for the treatment of cancer” (Cell reports, 2022).
Values joined by “and” are separate entries in the source; they are usually repeats but may differ in a detail not shown here. Equal values may be shown once.

System: WM3248 melanoma cells, 486 antibodies
Assay: Reverse phase protein arrays (RPPA)
Format: cell-based, Human
Settings: 5 uM
Excerpt: Pellets were snap frozen in liquid nitrogen and shipped to MD Anderson Cancer Center core RPPA facility for RPPA analysis (Table S5). Three biological replicates for each sample were generated.
Nomenclatures on the RPPA heatmaps: name_of_antibody.species_of_antibody.status_of_antibody. V - antibody validated; C - validation of antibody in progress; Q - antibody nonspecific; E – under evaluation; antibodies raised in M - mouse, G - goat, R - rabbit, or T - rat.

CN(C)c1cccc(Nc2cc(-c3ccccc3)nc(C3CCNCC3)n2)c1 [ARN22089, N1,N1-dimethyl-N3-(6-phenyl-2-(piperidin-4-yl)pyrimidin-4-yl)benzene-1,3-diamine] was tested, and the “RPPA level IGF1R_pY1135_Y1136.R.V” value (single replicates) was 0.923 and 1.035 and 1.147, the “RPPA level IGFBP2.R.V” value (single replicates) was 0.536 and 0.864 and 1.227 and the “RPPA level IGFBP3.M.V” value (single replicates) was 0.749 and 0.955 and 1.168. For the same compound, the “RPPA level IGFRb.R.C” value (single replicates) was 0.930 and 1.171, the “RPPA level IL.6.R.C” value (single replicates) was 0.941 and 1.064 and 1.146 and the “RPPA level IMP3.R.C” value (single replicates) was 0.986 and 0.965. For the same compound, the “RPPA level INPP4b.R.C” value (single replicates) was 1.116 and 0.899 and 0.832, the “RPPA level IR.b.R.C” value (single replicates) was 1.320 and 1.103 and the “RPPA level IRF.1.R.V” value (single replicates) was 0.717 and 1.139 and 1.144. The “RPPA level IRF.3.R.V” value (single replicates) was 0.919 and 1.034, the “RPPA level IRS1.R.V” value (single replicates) was 0.981 and the “RPPA level IRS2.R.C” value (single replicates) was 0.999 and 0.927 and 0.986. The “RPPA level JAB1.M.C” value (single replicates) was 1.009 and 0.971, the “RPPA level JNK2.R.V” value (single replicates) was 0.702 and 1.165 and 0.800 and the “RPPA level JNK_pT183_Y185.R.C” value (single replicates) was 0.946 and 1.035 and 1.097. For the same compound, the “RPPA level Jagged1.R.V” value (single replicates) was 0.958 and 1.186 and 0.974, the “RPPA level Jak2.R.V” value (single replicates) was 0.877 and 1.121 and the “RPPA level KAP1.R.V” value (single replicates) was 1.023 and 0.961 and 0.759. The “RPPA level KEAP1.R.V” value (single replicates) was 1.060 and 0.798 and 0.885, the “RPPA level LAD1.R.V” value (single replicates) was 0.906 and 1.221 and 0.985 and the “RPPA level LC3A.B.R.C” value (single replicates) was 0.962 and 0.690. The “RPPA level LCN2.R.V” value (single replicates) was 2.079 and 0.667 and 0.750, the “RPPA level LDHA.R.C” value (single replicates) was 1.269 and 0.924 and 0.174 and the “RPPA level LRP6_pS1490.R.V” value (single replicates) was 0.923 and 1.082 and 1.190. For the same compound, the “RPPA level Lasu1.R.V” value (single replicates) was 0.830 and 0.833, the “RPPA level Lck.R.V” value (single replicates) was 0.914 and 1.025 and 0.835 and the “RPPA level Lyn.R.V” value (single replicates) was 0.857 and 0.712. The “RPPA level MACC1.R.V” value (single replicates) was 0.983 and 0.952 and 1.126, the “RPPA level MAPK_pT202_Y204.R.C” value (single replicates) was 0.962 and 0.989 and 1.287 and the “RPPA level MCT4.R.V” value (single replicates) was 0.631 and 1.046 and 1.198. The “RPPA level MDM2_pS166.R.V” value (single replicates) was 0.981 and 1.059 and 0.658, the “RPPA level MEK1.R.V” value (single replicates) was 0.979 and 2.685 and the “RPPA level MEK1_pS217_S221.R.V” value (single replicates) was 0.968 and 1.488 and 0.918. The “RPPA level MEK2.R.V” value (single replicates) was 1.028 and 1.188 and 0.905, the “RPPA level MERIT40.R.C” value (single replicates) was 0.976 and 0.913 and the “RPPA level MERIT40_pS29.R.V” value (single replicates) was 0.986 and 0.944. The “RPPA level METTL3.R.V” value (single replicates) was 1.157 and 0.890 and 0.714, the “RPPA level MIF.R.C” value (single replicates) was 0.954 and 1.000 and the “RPPA level MIG6.R.V” value (single replicates) was 1.004 and 0.977. The “RPPA level MITF.R.V” value (single replicates) was 1.035 and 0.897, the “RPPA level MLH1.M.V” value (single replicates) was 0.967 and 0.818 and the “RPPA level MLKL.R.V” value (single replicates) was 0.948. For the same compound, the “RPPA level MMP2.R.V” value (single replicates) was 1.053 and 0.940 and 0.993, the “RPPA level MMP14.R.V” value (single replicates) was 0.806 and 0.852 and 1.235 and the “RPPA level MR1.M.C” value (single replicates) was 0.985 and 1.126 and 0.989. The “RPPA level MRAP.R.C” value (single replicates) was 1.027 and 1.099 and 1.056, the “RPPA level MSH2.R.C” value (single replicates) was 0.981 and 0.975 and 0.839 and the “RPPA level MSH6.R.C” value (single replicates) was 0.974 and 1.034 and 0.768. The “RPPA level MSI2.R.C” value (single replicates) was 1.007 and 0.996 and 1.009, the “RPPA level MTCO1.M.V” value (single replicates) was 1.026 and 0.959 and 0.846 and the “RPPA level MTSS1.M.C” value (single replicates) was 0.922 and 1.002. The “RPPA level Mcl.1.R.V” value (single replicates) was 0.903 and 1.197 and 1.129, the “RPPA level MelanA.R.C” value (single replicates) was 0.929 and 1.064 and 1.083 and the “RPPA level Melanoma.gp100.R.C” value (single replicates) was 0.903 and 1.116 and 1.163. The “RPPA level Merlin.R.C” value (single replicates) was 0.905 and 1.160 and 0.615, the “RPPA level Midkine.R.V” value (single replicates) was 1.000 and 0.968 and 1.034 and the “RPPA level Mitofusin.1.R.V” value (single replicates) was 0.993 and 1.106 and 1.060. For the same compound, the “RPPA level Mitofusin.2.R.V” value (single replicates) was 0.878 and 0.979, the “RPPA level Mnk1.R.V” value (single replicates) was 1.011 and 1.102 and the “RPPA level mTOR.R.V” value (single replicates) was 1.085 and 1.120 and 0.844. The “RPPA level mTOR_pS2448.R.C” value (single replicates) was 1.164 and 0.821, the “RPPA p21.R.C” value (single replicates) was 1.391 and 0.730 and 1.025 and the “RPPA p27.Kip1.R.C” value (single replicates) was 1.014 and 0.921 and 0.908. For the same compound, the “RPPA p27_pT157.R.C” value (single replicates) was 0.998 and 1.050 and 0.780, the “RPPA p27_pT198.R.V” value (single replicates) was 0.905 and 1.281 and 1.122 and the “RPPA p38.MAPK.R.V” value (single replicates) was 1.001 and 1.097. The “RPPA p38.MAPK._pT180_Y182.R.V” value (single replicates) was 0.866 and 2.597 and 1.276, the “RPPA p38.a.M.V” value (single replicates) was 1.063 and 0.940 and 0.948 and the “RPPA p44.42.MAPK.R.V” value (single replicates) was 1.135 and 1.025 and 0.778. For the same compound, the “RPPA p53.R.C” value (single replicates) was 0.836 and 1.157 and 1.162, the “RPPA p70.S6K1.R.V” value (single replicates) was 1.053 and 0.972 and the “RPPA p70.S6K_pT389.R.V” value (single replicates) was 0.923 and 1.455 and 1.050. For the same compound, the “RPPA p90RSK_pT573.R.C” value (single replicates) was 1.055 and 0.692, the “RPPA DNMT1.R.V” value (single samples) was 0.942 and 1.005 and the “RPPA DRP1.R.V” value (single samples) was 1.048 and 0.924 and 1.058. For the same compound, the “RPPA DUSP4.R.V” value (single samples) was 1.207, the “RPPA DUSP6.R.C” value (single samples) was 1.757 and the “RPPA DYRK1B.R.C” value (single samples) was 1.023 and 0.961 and 1.055. For the same compound, the “RPPA Dvl3.R.V” value (single samples) was 0.942 and 1.023 and 1.077, the “RPPA E2F1.R.V” value (single samples) was 0.971 and 1.007 and 0.906 and the “RPPA E.Cadherin.R.V” value (single samples) was 0.967 and 0.935 and 0.968. The “RPPA EGFR.R.V” value (single samples) was 0.950 and 1.055 and 0.936.
